Reference: patent US20060183921A1, “Pharmaceutically active compounds and methods of use” (priority 2001, published 2006)

Experiments:
[1] = molecular target: T1, human recombinant A1-adenosine receptors (Homo sapiens, UniProt P30542); assay: Measurement of cAMP enhancement in CHO cells (allosteric enhancement, cAMP content by radioimmunoassay); type: cell-based; conditions: CHO:huA1 cells, forskolin 1 μM, rolipram 20 μM, CPA 0.01 nM, 6 min at 36° C., control 100%
T1 construct: expressed in transfected cells; host or cells: CHO (Chinese hamster ovary) cells, CHO:huA1, under G-418 selection
T1 sequence (P30542 1-326): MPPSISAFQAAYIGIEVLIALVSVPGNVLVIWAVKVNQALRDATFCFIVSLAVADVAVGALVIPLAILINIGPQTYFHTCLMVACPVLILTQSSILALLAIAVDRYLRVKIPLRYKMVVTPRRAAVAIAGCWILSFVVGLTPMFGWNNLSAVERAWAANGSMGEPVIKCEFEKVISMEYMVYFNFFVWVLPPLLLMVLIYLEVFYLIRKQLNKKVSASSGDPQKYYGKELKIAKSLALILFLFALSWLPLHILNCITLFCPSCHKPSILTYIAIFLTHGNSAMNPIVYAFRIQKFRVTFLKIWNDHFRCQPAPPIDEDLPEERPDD
Experimental: Chinese hamster ovary cells expressing human recombinant A1-adenosine receptors (CHO:huA1 cells) at a density of approximately 8000 fmol/mg protein were prepared as previously described (Kollias-Baker et al., (1997), J. Pharmacol. Exp. Ther. 281: 761-768) and aliquots of the cells at low passage numbers were frozen and stored in liquid nitrogen. When compounds were tested, an aliquot of CHO:huA1 cells were rapidly thawed after removal from liquid nitrogen, then grown in Ham's F12 culture medium with 10% fetal bovine serum and 0.5 mg/mL of antibiotic G-418 (Shryock, Ozeck, and Belardinelli (1998), Mol. Pharmacol. 53: 886-893). Cells were passaged thrice weekly. Aliquots of cells were placed into 12-well plates with culture medium, serum, and antibiotic for 48 hours, by which time the cells had grown to a confluent monolayer.
Allosteric enhancement was measured as the action of a test compound at different concentrations (0.01, 0.1, 1 and 10 μM) to reduce the cAMP content of CHO:huA1 cells. To initiate an experiment, growth medium was removed from the 12-well plates and cells were washed once with warm Hanks' buffered saline. The wash solution was then removed and replaced with fresh Hanks' solution containing forskolin (1 μM), rolipram (20 μM), N^6-cyclopentyladenosine (CPA, 0.01 nM), adenosine deaminase (2 U/mL), and the test compound. Forskolin was used to stimulate the activity of adenylyl cyclase, rolipram to inhibit cAMP phosphodiesterase, adenosine deaminase to degrade endogenous adenosine, and CPA to cause a small increase of the number of activated adenosine receptors. After 6 min of incubation at 36° C. in the presence of test compound, the incubation solution was removed and hydrochloric acid (final concentration 50 mM) was added to terminate drug action. The content of cAMP in acidified extracts of cells was determined by radioimmunoassay as previously described (Kollias-Baker et al., (1997), J. Pharmacol. Exp. Ther. 281: 761-768). Because the magnitude of the effects of allosteric enhancers on CHO:huA1 cells changed subtly with passage number and differed slightly among different aliquots of cells, the actions of the test compounds and the action of a reference compound (PD 81,723) were assessed in each experiment. The effect of each test compound on cAMP content is presented in the accompanying table as a percentage of the value of cAMP content in the absence of drug (control, 100%). Each value is a mean±standard error of 6 determinations in each of the number of experiments indicated in the “n” column of the table.

Row | SMILES | melting point | Change in cAMP Content from Control (Mean ± SEM) ([1]; 0.01 μM test compound) | Change in cAMP Content from Control (Mean ± SEM) ([1]; 0.1 μM test compound) | Change in cAMP Content from Control (Mean ± SEM) ([1]; 1 μM test compound) | Change in cAMP Content from Control (Mean ± SEM) ([1]; 10 μM test compound)
1 | Cc1cccc2c1C(=O)c1c-2csc1N [Example 2, 1-Amino-7-methyl-2-thia-cyclopenta[a]inden-8-one] | 196 to 198 °C |  |  |  | 
2 | Cc1ccc2c(c1)-c1csc(N)c1C2=O [Example 3, 1-Amino-5-methyl-2-thia-cyclopenta[a]inden-8-one] | 157 to 159 °C |  |  |  | 
3 | Nc1scc2c1C(=O)c1c(Cl)cccc1-2 [Example 4, 1-Amino-7-chloro-2-thia-cyclopenta[a]inden-8-one] | 183 to 185 °C |  |  |  | 
4 | Nc1scc2c1C(=O)c1ccc(Cl)cc1-2 [Example 5, 1-Amino-5-chloro-2-thia-cyclopenta[a]inden-8-one] | 201 to 202 °C |  |  |  | 
5 | Nc1scc2c1C(=O)c1c-2ccc(Cl)c1Cl [Example 6, 1-Amino-6,7-dichloro-2-thia-cyclopenta[a]inden-8-one] | 254 to 255 °C |  |  |  | 
6 | Nc1scc2c1C(=O)c1cc(Br)ccc1-2 [Example 21, 1-Amino-6-bromo-2-thia-cyclopenta[a]inden-8-one] |  | −5 ± 4% | −15 ± 2% | 4 ± 5% | −16 ± 3%
7 | Nc1scc2c1C(O)c1ccc(Cl)cc1-2 (stereo not shown) [Example 22, 1-Amino-5-chloro-8-hydroxy-2-thia-cyclopenta[a]indene] |  | 4 ± 2% | −1 ± 8% | 0 ± 7% | −17 ± 2%
8 | CC(=O)Nc1scc2c1C(=O)c1ccc(Cl)cc1-2 [Example 23, 1-Acetylamino-5-chloro-2-thia-cyclopenta[a]inden-8-one] |  | −7 ± 2% | 9 ± 9% | −16 ± 3% | −42 ± 1%
9 | Nc1ccc2c(c1)C(=O)c1c-2csc1N [Example 24, 1,6-Diamino-2-thia-cyclopenta[a]inden-8-one] |  | 5 ± 3% | 5 ± 3% | −1 ± 1% | −23 ± 6%
10 | Nc1scc2c1C(=O)c1ccc(Cl)c(Cl)c1-2 [Example 25, 1-Amino-4,5-dichloro-2-thia-cyclopenta[a]inden-8-one] |  | 0 ± 5% | −9 ± 8% | −46 ± 2% | −75 ± 3%
11 | Nc1sc2c3c1C(=O)c1ccc(Cl)cc1C3CN(Cc1ccccc1)C2 (stereo not shown) [Example 26, 5-Amino-2-benzyl-9-chloro-1,2,3,10b-tetrahydro-6H-benzo[h]thieno[2,3,4-de]isoquinolin-6-one] |  | −4 ± 1% | −1 ± 7% | 15 ± 6% | 25 ± 7%
12 | Nc1scc2c1C(=O)c1c(Cl)cccc1C21SCCCS1 [Example 27, 3-Amino-5-chloro-9-spiro(1,3-dithian-2-yl)-9H-naphtho[2,3-c]thiophene-4-one] |  | 6 ± 3% | 8 ± 5% | 8 ± 9% | 0 ± 9%
13 | Cc1sc(N)c(C(=O)c2cccc(C(F)(F)F)c2)c1C [PD 81,72, reference compound] |  | 4 ± 2% | 8 ± 3% | −32 ± 2% | −75 ± 1%
